Results reported in ChEMBL document CHEMBL1201862, “PubChem BioAssay data set” (2004).
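Growth conditions: 96-well plates. Treatment: test compound, 48 hours, 5 concentrations. Analysis: linear interpolation between bracketing concentrations; unreached endpoints set to highest concentration. Abbreviation: GI50, concentration required for 50% inhibition of growth.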 Activity calls are given as the source filed them. No stated cut-off is given here; in the data, active = GI50 up to about 1.1 µM and inactive = higher.

Columns and labels:
Assay in all cases: NCI anticancer screen, dose series, 48 h
[1] = test system: EKVX
[2] = test system: T47D
[3] = test system: KM12
[4] = test system: SR
[5] = test system: Malme-3M
[6] = test system: MCF7
[7] = test system: M14
[8] = test system: DU-145
[9] = test system: U-251
[10] = test system: UACC-62
[11] = test system: NCI-H226
[12] = test system: SF-539
[13] = test system: SW-620
[14] = test system: K562
[15] = test system: SK-MEL-5
[16] = test system: RPMI-8226
[17] = test system: A498
[18] = test system: OVCAR-5
[19] = test system: HOP-62
[20] = test system: Hs-578T

Row | SMILES | GI50 [1] | GI50 [2] | GI50 [3] | GI50 [4] | GI50 [5] | GI50 [6] | GI50 [7] | GI50 [8] | GI50 [9] | GI50 [10] | GI50 [11] | GI50 [12] | GI50 [13] | GI50 [14] | GI50 [15] | GI50 [16] | GI50 [17] | GI50 [18] | GI50 [19] | GI50 [20]
1 | C=C1c2nc3ccccc3n2C=C(c2ccc(Cl)cc2)N1c1ccc(OCCN2CCCCC2)cc1 | > 45 µM (inactive) | > 45 µM (inactive) | > 45 µM (inactive) | > 45 µM (inactive) | 8.41 µM (inactive) | > 45 µM (inactive) | > 45 µM (inactive) | > 45 µM (inactive) | > 45 µM (inactive) | > 45 µM (inactive) | > 100 µM (inactive) | > 100 µM (inactive) | > 45 µM (inactive) | > 45 µM (inactive) | > 45 µM (inactive) | 2.43 µM (inactive) | > 45 µM (inactive) | > 45 µM (inactive) | > 45 µM (inactive) | 
2 | N/C(=N\c1cccc(Cl)c1)c1ccccc1N | > 100 µM (inactive) |  | > 100 µM (inactive) | > 100 µM (inactive) | > 100 µM (inactive) | > 100 µM (inactive) | > 100 µM (inactive) | > 100 µM (inactive) | > 100 µM (inactive) | > 100 µM (inactive) | > 100 µM (inactive) |  | > 100 µM (inactive) | > 100 µM (inactive) | > 100 µM (inactive) | > 100 µM (inactive) | > 100 µM (inactive) | > 100 µM (inactive) | > 100 µM (inactive) | > 100 µM (inactive)
3 | CCCCN(CCCC)CCC(O)c1cc2c(Cl)cc(Cl)cc2c2cc(C(F)(F)F)ccc12 (stereo unspecified) | 14.5 µM (inactive) | 12.8 µM (inactive) |  | 10.3 µM (inactive) | 16.4 µM (inactive) | 10.2 µM (inactive) | 8.93 µM (inactive) | 10.3 µM (inactive) | 14.4 µM (inactive) | 15 µM (inactive) |  | 9.4 µM (inactive) | 11.3 µM (inactive) | 6.73 µM (inactive) |  | 8.36 µM (inactive) | 3.59 µM (inactive) | 12.9 µM (inactive) | 10 µM (inactive) | 
4 | CC(C)Oc1c(O)c2c3c(oc(=O)n3C=CC2c2ccccc2)c1OC(C)C (stereo unspecified) | 22.3 µM (inactive) | 25.9 µM (inactive) | 21.5 µM (inactive) |  |  | 19.6 µM (inactive) | 20 µM (inactive) | 34 µM (inactive) | 20.8 µM (inactive) |  | 27.6 µM (inactive) | 19.7 µM (inactive) | 32 µM (inactive) |  | 32.3 µM (inactive) |  |  | 34.4 µM (inactive) | 26.7 µM (inactive) | 
5 | Nc1c2ccccc2nc2nccnc12 | 38.4 µM (inactive) |  | > 100 µM (inactive) | > 100 µM (inactive) | > 100 µM (inactive) |  | > 100 µM (inactive) |  | > 100 µM (inactive) | > 100 µM (inactive) | > 100 µM (inactive) | > 100 µM (inactive) | > 100 µM (inactive) | > 100 µM (inactive) | > 100 µM (inactive) | > 100 µM (inactive) | > 100 µM (inactive) | > 100 µM (inactive) | > 100 µM (inactive) | 
6 | COc1cccc(-c2nc(-c3cnccn3)n(COCCO)n2)c1 |  | > 100 µM (inactive) | > 100 µM (inactive) | > 100 µM (inactive) |  | > 100 µM (inactive) | > 100 µM (inactive) | > 100 µM (inactive) | > 100 µM (inactive) | > 100 µM (inactive) |  | > 100 µM (inactive) | > 100 µM (inactive) | > 100 µM (inactive) | > 100 µM (inactive) | > 100 µM (inactive) |  | > 100 µM (inactive) | > 100 µM (inactive) | 
7 | COC(=O)C1=C(C(=O)OC)C2CCC1CC2=O (stereo unspecified) | > 100 µM (inactive) |  | 65.6 µM (inactive) | 61.2 µM (inactive) | > 100 µM (inactive) | > 100 µM (inactive) | > 100 µM (inactive) | > 100 µM (inactive) | > 100 µM (inactive) | > 100 µM (inactive) | > 100 µM (inactive) | > 100 µM (inactive) | 89.9 µM (inactive) | 49 µM (inactive) | > 100 µM (inactive) | > 100 µM (inactive) | > 100 µM (inactive) | > 100 µM (inactive) | > 100 µM (inactive) | 
8 | COC(=O)C1=Cc2cc3c(cc2[C@H](c2ccc4c(c2)OCO4)C1C(=O)OC)OCO3 (stereo partly specified) | 46.8 µM (inactive) |  | 67.1 µM (inactive) | 59.4 µM (inactive) | > 100 µM (inactive) |  | 68.1 µM (inactive) |  | 61.4 µM (inactive) | 58.6 µM (inactive) | > 100 µM (inactive) | > 100 µM (inactive) | 71.3 µM (inactive) | 53.5 µM (inactive) | 46.6 µM (inactive) | > 100 µM (inactive) | 0.0745 µM (active) | > 100 µM (inactive) | > 100 µM (inactive) | 
9 | Cc1cn(CC2=NCC(O)CN2)c(=O)[nH]c1=O (stereo unspecified) | > 100 µM (inactive) | > 100 µM (inactive) | > 100 µM (inactive) |  | > 100 µM (inactive) | > 100 µM (inactive) | > 100 µM (inactive) | > 100 µM (inactive) | > 100 µM (inactive) | > 100 µM (inactive) | > 100 µM (inactive) | > 100 µM (inactive) | > 100 µM (inactive) | > 100 µM (inactive) | > 100 µM (inactive) | > 100 µM (inactive) | > 100 µM (inactive) | > 100 µM (inactive) | > 100 µM (inactive) | 
10 | CC(C)CC(=O)CC(C)[C@]1(CCCOCc2ccccc2)C(=O)N2CCC3(C[C@@]24CCC[C@H]41)OCCO3 (stereo partly specified) | > 10 µM (inactive) |  | > 10 µM (inactive) | > 10 µM (inactive) |  | > 10 µM (inactive) | > 10 µM (inactive) |  | > 10 µM (inactive) |  | > 10 µM (inactive) | > 10 µM (inactive) | > 10 µM (inactive) | > 10 µM (inactive) | > 10 µM (inactive) | > 10 µM (inactive) | > 10 µM (inactive) | > 10 µM (inactive) | > 10 µM (inactive) | 
11 | COc1cc2oc(=O)cc(C)c2c(OC)c1OC | 87.9 µM (inactive) |  | > 100 µM (inactive) | > 100 µM (inactive) | > 100 µM (inactive) | > 100 µM (inactive) | > 100 µM (inactive) | > 100 µM (inactive) | > 100 µM (inactive) | > 100 µM (inactive) | > 100 µM (inactive) |  | > 100 µM (inactive) | > 100 µM (inactive) | > 100 µM (inactive) | > 100 µM (inactive) | 30.8 µM (inactive) | > 100 µM (inactive) | > 100 µM (inactive) | > 100 µM (inactive)
12 | CN(C)c1cccc2c1C(=O)C=CC21c2ccc(N(C)C)c3c(N(C)C)ccc(c23)C(c2ccccc2)C1c1ccccc1 (stereo unspecified) | 22.2 µM (inactive) |  | 14.3 µM (inactive) | 7.82 µM (inactive) | 18 µM (inactive) | 17.9 µM (inactive) | 16.7 µM (inactive) | 42.5 µM (inactive) | 10.5 µM (inactive) | 20.1 µM (inactive) | 12.7 µM (inactive) | 12.1 µM (inactive) | 19.8 µM (inactive) | 18.3 µM (inactive) | 14.2 µM (inactive) | 15.9 µM (inactive) | 6.68 µM (inactive) | 28.1 µM (inactive) | 17.6 µM (inactive) | 10 µM (inactive)
13 | Brc1ccc2c(C3CN[C@@H](c4c[nH]c5cc(Br)ccc45)CN3)c[nH]c2c1 (stereo partly specified) | 8.97 µM (inactive) |  | 1.72 µM (inactive) | 0.968 µM (active) | 12.2 µM (inactive) |  | 2.55 µM (inactive) |  | 5.37 µM (inactive) | 4.37 µM (inactive) | 2.13 µM (inactive) | 3.99 µM (inactive) | 2.48 µM (inactive) | 1.65 µM (inactive) | 3.67 µM (inactive) | 1.89 µM (inactive) | 1.79 µM (inactive) | 2.48 µM (inactive) | 3.94 µM (inactive) | 
14 | N#C/C(C(=O)Nc1ccc(Cl)cc1)=C(/N)N1CCCC1 | > 100 µM (inactive) | > 100 µM (inactive) | > 100 µM (inactive) | > 100 µM (inactive) |  | > 100 µM (inactive) | > 100 µM (inactive) | > 100 µM (inactive) | > 100 µM (inactive) | > 100 µM (inactive) | > 100 µM (inactive) | > 100 µM (inactive) | > 100 µM (inactive) | > 100 µM (inactive) | > 100 µM (inactive) | > 100 µM (inactive) | > 100 µM (inactive) | > 100 µM (inactive) | > 100 µM (inactive) | 
15 | O=C1C(NCCc2ccc(O)c([N+](=O)[O-])c2)=CC(=O)c2[nH]cnc21 | 27.4 µM (inactive) | 18.5 µM (inactive) | 42.9 µM (inactive) |  | 5.79 µM (inactive) | 32 µM (inactive) | 15 µM (inactive) |  | 32.3 µM (inactive) | 20.8 µM (inactive) |  | 38 µM (inactive) | 44.6 µM (inactive) | 18.4 µM (inactive) | 16.2 µM (inactive) | 32.7 µM (inactive) | 32.1 µM (inactive) | 33.3 µM (inactive) | 68.4 µM (inactive) | 83.9 µM (inactive)
16 | COC(=O)c1nc2c3c(cccc3c1C(=O)OC)Nc1ccccc1-2 | 65.8 µM (inactive) |  | 28.2 µM (inactive) | 78.3 µM (inactive) | 29.2 µM (inactive) | 60.4 µM (inactive) | 44.8 µM (inactive) | 41.6 µM (inactive) | 32.1 µM (inactive) | 10.7 µM (inactive) | 65.3 µM (inactive) | 52.7 µM (inactive) | 40.7 µM (inactive) | 54.1 µM (inactive) | 15.4 µM (inactive) | 53 µM (inactive) | 36.6 µM (inactive) | > 100 µM (inactive) | 23.6 µM (inactive) | 26.7 µM (inactive)
